Laboratory results as given in patent publication US20250353891A1 (MEDIMMUNE LIMITED, priority 2022, published 2025).
pEC50: −log10 of the molar value. Starred links: 1 amine or outer side, 2 acyl side, 3 side chain; linkers in the order of their positions; H or OH if unused. Non-standard residues stand in square brackets, D forms with d. Residues, ends and D or L forms follow the SMILES beside them. Groups on a side chain read outwards from the residue. *: point of attachment. C20 diacid = O=C(O)CCCCCCCCCCCCCCCCCCC(=O)*; C18 diacid = O=C(O)CCCCCCCCCCCCCCCCC(=O)*; γGlu = O=C(O)[C@H](CCC(=O)[*:2])N[*:1]; αMeF = C[C@](N)(Cc1ccccc1)C(=O)O; AEEA = NCCOCCOCC(=O)O; Aib = CC(C)(N)C(=O)O

Assays:
[1] = target: human GLP-1 receptor (hGLP-1R) (Homo sapiens, UniProt P43220); test: cAMP production (HTRF) in CHO cells expressing hGLP-1R; assay type: cell-based; design: expressed in transfected cells; settings: for pEC50: Table 7, peptides modified at position 20, cAMP in CHO hGLP-1R cells, geometric mean, read-out: hGLP-1R EC50; for % Relative Potency Ratio: Table 7, % GLP-1R activity relative to GLP-1 / % GlucR activity relative to glucagon
Sequence of human GLP-1 receptor (hGLP-1R) (P43220 24-463): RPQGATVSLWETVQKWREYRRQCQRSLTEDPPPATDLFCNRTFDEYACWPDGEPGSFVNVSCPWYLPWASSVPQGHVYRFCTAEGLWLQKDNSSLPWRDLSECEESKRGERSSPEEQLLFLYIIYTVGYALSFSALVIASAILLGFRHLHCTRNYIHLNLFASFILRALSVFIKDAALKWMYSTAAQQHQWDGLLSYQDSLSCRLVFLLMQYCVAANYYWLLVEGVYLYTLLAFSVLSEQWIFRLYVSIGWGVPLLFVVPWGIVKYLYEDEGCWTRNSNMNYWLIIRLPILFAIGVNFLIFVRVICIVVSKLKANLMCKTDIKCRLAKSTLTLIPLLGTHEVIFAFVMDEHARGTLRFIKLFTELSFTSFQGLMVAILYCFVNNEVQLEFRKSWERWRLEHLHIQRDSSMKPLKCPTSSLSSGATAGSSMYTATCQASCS
Procedure, shortened: (§1)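 Cells were resuspended in assay buffer at batch-optimized density, typically 1×10^5 cells/mL for hGLP-1R and 2×10^5 cells/mL for hGCGR. After 30 min incubation at room temperature with compound, cAMP was measured by two-step HTRF. EC50 values came from 4-parameter logistic fits of % Delta F.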

[2] = target: human glucagon receptor (hGCGR) (Homo sapiens, UniProt P47871); test: cAMP production (HTRF) in CHO cells expressing hGCGR; assay type: cell-based; design: expressed in transfected cells; settings: Table 7, peptides modified at position 20; cAMP in CHO hGCGR cells; geometric mean; read-out: hGluc-R EC50
Sequence of human glucagon receptor (hGCGR) (P47871 26-477): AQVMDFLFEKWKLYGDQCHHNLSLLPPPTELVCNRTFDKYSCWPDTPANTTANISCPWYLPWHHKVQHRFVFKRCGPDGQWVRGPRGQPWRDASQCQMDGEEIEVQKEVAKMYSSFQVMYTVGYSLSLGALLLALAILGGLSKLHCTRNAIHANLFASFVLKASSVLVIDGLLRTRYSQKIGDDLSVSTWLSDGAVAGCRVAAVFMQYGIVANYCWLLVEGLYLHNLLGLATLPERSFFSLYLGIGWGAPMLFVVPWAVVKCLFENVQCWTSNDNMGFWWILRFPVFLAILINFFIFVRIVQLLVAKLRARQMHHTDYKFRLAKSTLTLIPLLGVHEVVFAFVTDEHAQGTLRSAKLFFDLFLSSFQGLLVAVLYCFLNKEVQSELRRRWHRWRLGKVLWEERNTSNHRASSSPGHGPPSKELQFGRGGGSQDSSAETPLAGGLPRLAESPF
Procedure, shortened: as §1

pEC50 [1] | % Relative Potency Ratio [1] | pEC50 [2] | SMILES
10.52 | 6.8 | 9.98 | CC[C@H](C)[C@H](NC(=O)C(C)(C)NC(=O)[C@H](CCC(N)=O)NC(=O)[C@@H](NC(=O)[C@](C)(Cc1ccccc1)NC(=O)[C@H](CC(=O)O)NC(=O)[C@H](CCCCNC(=O)COCCOCCNC(=O)COCCOCCNC(=O)CC[C@H](NC(=O)CCCCCCCCCCCCCCCCC(=O)O)C(=O)O)NC(=O)[C@H](C)NC(=O)[C@H](C)NC(=O)[C@H](CCCNC(=N)N)NC(=O)[C@H](CO)NC(=O)[C@H](CC(=O)O)NC(=O)[C@H](CC(C)C)NC(=O)[C@](C)(Cc1ccccc1)NC(=O)[C@H](CCCNC(=N)N)NC(=O)[C@H](CO)NC(=O)[C@@H](NC(=O)[C@H](CC(=O)O)NC(=O)[C@H](CO)NC(=O)[C@@H](NC(=O)[C@](C)(Cc1ccccc1)NC(=O)[C@H](CO)NC(=O)CNC(=O)[C@H](Cc1c[nH]cn1)NC(=O)C(C)(C)NC(=O)[C@@H](N)Cc1c[nH]cn1)[C@@H](C)O)C(C)C)C(C)C)C(=O)N[C@@H](C)C(=O)N[C@@H](CC(N)=O)C(=O)N[C@H](C(N)=O)[C@@H](C)O [Peptide 297] (H-H[Aib]HGS[αMeF]TSDVSR[αMeF]LDSRAAK([AEEA-AEEA-γGlu-C18 diacid])D[αMeF]VQ[Aib]IANT-NH2)
10.12 | 15.0 | 9.24 | CC[C@H](C)[C@H](NC(=O)C(C)(C)NC(=O)[C@H](CCC(N)=O)NC(=O)[C@@H](NC(=O)[C@](C)(Cc1ccccc1)NC(=O)[C@H](CC(=O)O)NC(=O)[C@H](CCCCNC(=O)COCCOCCNC(=O)COCCOCCNC(=O)CC[C@H](NC(=O)CC[C@H](NC(=O)CCCCCCCCCCCCCCCCCCC(=O)O)C(=O)O)C(=O)O)NC(=O)[C@H](C)NC(=O)[C@H](C)NC(=O)[C@H](CCCNC(=N)N)NC(=O)[C@H](CO)NC(=O)[C@H](CC(=O)O)NC(=O)[C@H](CC(C)C)NC(=O)[C@](C)(Cc1ccccc1)NC(=O)[C@H](CCCNC(=N)N)NC(=O)[C@H](CO)NC(=O)[C@@H](NC(=O)[C@H](CC(=O)O)NC(=O)[C@H](CO)NC(=O)[C@@H](NC(=O)[C@](C)(Cc1ccccc1)NC(=O)[C@H](CO)NC(=O)CNC(=O)[C@H](Cc1c[nH]cn1)NC(=O)C(C)(C)NC(=O)[C@@H](N)Cc1c[nH]cn1)[C@@H](C)O)C(C)C)C(C)C)C(=O)N[C@@H](C)C(=O)N[C@@H](CC(N)=O)C(=O)N[C@H](C(N)=O)[C@@H](C)O [Peptide 298] (H-H[Aib]HGS[αMeF]TSDVSR[αMeF]LDSRAAK([AEEA-AEEA-γGlu-γGlu-C20 diacid])D[αMeF]VQ[Aib]IANT-NH2)
10.12 | – | 9.71 | CC[C@H](C)[C@H](NC(=O)C(C)(C)NC(=O)[C@H](CCC(N)=O)NC(=O)[C@@H](NC(=O)[C@](C)(Cc1ccccc1)NC(=O)[C@H](CC(=O)O)NC(=O)[C@H](CCCCNC(=O)COCCOCCNC(=O)COCCOCCNC(=O)CC[C@H](NC(=O)CC[C@H](NC(=O)CCCCCCCCCCCCCCCCCCC(=O)O)C(=O)O)C(=O)O)NC(=O)[C@H](C)NC(=O)[C@H](C)NC(=O)[C@H](CCCNC(=N)N)NC(=O)[C@H](CO)NC(=O)[C@H](CC(=O)O)NC(=O)[C@H](CC(C)C)NC(=O)[C@](C)(Cc1ccccc1)NC(=O)[C@H](CCCCN)NC(=O)[C@H](CO)NC(=O)[C@@H](NC(=O)[C@H](CC(=O)O)NC(=O)[C@H](CO)NC(=O)[C@@H](NC(=O)[C@](C)(Cc1ccccc1)NC(=O)[C@H](CO)NC(=O)CNC(=O)[C@H](Cc1c[nH]cn1)NC(=O)C(C)(C)NC(=O)[C@@H](N)Cc1c[nH]cn1)[C@@H](C)O)C(C)C)C(C)C)C(=O)N[C@@H](C)C(=O)N[C@@H](CCC(=O)O)C(=O)N[C@H](C(N)=O)[C@@H](C)O [Peptide 299] (H-H[Aib]HGS[αMeF]TSDVSK[αMeF]LDSRAAK([AEEA-AEEA-γGlu-γGlu-C20 diacid])D[αMeF]VQ[Aib]IAET-NH2)
10.00 | 2.0 | 10.00 | CC[C@H](C)[C@H](NC(=O)C(C)(C)NC(=O)[C@H](CCC(N)=O)NC(=O)[C@@H](NC(=O)[C@](C)(Cc1ccccc1)NC(=O)[C@H](CC(=O)O)NC(=O)[C@H](CCCCNC(=O)COCCOCCNC(=O)COCCOCCNC(=O)CC[C@H](NC(=O)CCCCCCCCCCCCCCCCC(=O)O)C(=O)O)NC(=O)[C@H](C)NC(=O)[C@H](C)NC(=O)[C@H](CCCNC(=N)N)NC(=O)[C@H](CO)NC(=O)[C@H](CC(=O)O)NC(=O)[C@H](CC(C)C)NC(=O)[C@](C)(Cc1ccccc1)NC(=O)[C@H](CCCCN)NC(=O)[C@H](CO)NC(=O)[C@@H](NC(=O)[C@H](CC(=O)O)NC(=O)[C@H](CO)NC(=O)[C@@H](NC(=O)[C@](C)(Cc1ccccc1)NC(=O)[C@H](CO)NC(=O)CNC(=O)[C@H](Cc1c[nH]cn1)NC(=O)C(C)(C)NC(=O)[C@@H](N)Cc1c[nH]cn1)[C@@H](C)O)C(C)C)C(C)C)C(=O)N[C@@H](C)C(=O)N[C@@H](CC(N)=O)C(=O)N[C@H](C(=O)O)[C@@H](C)O [Peptide 303] (H-H[Aib]HGS[αMeF]TSDVSK[αMeF]LDSRAAK([AEEA-AEEA-γGlu-C18 diacid])D[αMeF]VQ[Aib]IANT-OH)
9.62 | 5.7 | 9.16 | CC[C@H](C)[C@H](NC(=O)C(C)(C)NC(=O)[C@H](CCC(N)=O)NC(=O)[C@@H](NC(=O)[C@](C)(Cc1ccccc1)NC(=O)[C@H](CC(=O)O)NC(=O)[C@H](CCCCNC(=O)COCCOCCNC(=O)COCCOCCNC(=O)CC[C@H](NC(=O)CC[C@H](NC(=O)CCCCCCCCCCCCCCCCCCC(=O)O)C(=O)O)C(=O)O)NC(=O)[C@H](C)NC(=O)[C@H](C)NC(=O)[C@H](CCCNC(=N)N)NC(=O)[C@H](CO)NC(=O)[C@H](CC(=O)O)NC(=O)[C@H](CC(C)C)NC(=O)[C@](C)(Cc1ccccc1)NC(=O)[C@H](CCCCN)NC(=O)[C@H](CO)NC(=O)[C@@H](NC(=O)[C@H](CC(=O)O)NC(=O)[C@H](CO)NC(=O)[C@@H](NC(=O)[C@](C)(Cc1ccccc1)NC(=O)[C@H](CO)NC(=O)CNC(=O)[C@H](Cc1c[nH]cn1)NC(=O)C(C)(C)NC(=O)[C@@H](N)Cc1c[nH]cn1)[C@@H](C)O)C(C)C)C(C)C)C(=O)N[C@@H](C)C(=O)N[C@@H](CC(N)=O)C(=O)N[C@H](C(=O)O)[C@@H](C)O [Peptide 304] (H-H[Aib]HGS[αMeF]TSDVSK[αMeF]LDSRAAK([AEEA-AEEA-γGlu-γGlu-C20 diacid])D[αMeF]VQ[Aib]IANT-OH)
9.68 | 1.5 | 9.81 | CC[C@H](C)[C@H](NC(=O)[C@H](Cc1c[nH]c2ccccc12)NC(=O)[C@H](CCC(N)=O)NC(=O)[C@@H](NC(=O)[C@H](Cc1ccccc1)NC(=O)[C@H](CC(=O)O)NC(=O)[C@H](CCCCNC(=O)COCCOCCNC(=O)COCCOCCNC(=O)CC[C@H](NC(=O)CC[C@H](NC(=O)CCCCCCCCCCCCCCCCCCC(=O)O)C(=O)O)C(=O)O)NC(=O)[C@H](C)NC(=O)[C@H](C)NC(=O)[C@H](CCCNC(=N)N)NC(=O)[C@H](CO)NC(=O)[C@H](CC(=O)O)NC(=O)[C@H](CC(C)C)NC(=O)[C@](C)(Cc1ccccc1)NC(=O)[C@H](CCCCN)NC(=O)[C@H](CO)NC(=O)[C@@H](NC(=O)[C@H](CC(=O)O)NC(=O)[C@H](CO)NC(=O)[C@@H](NC(=O)[C@H](Cc1ccccc1)NC(=O)[C@@H](NC(=O)CNC(=O)[C@H](Cc1c[nH]cn1)NC(=O)C(C)(C)NC(=O)[C@@H](N)Cc1c[nH]cn1)[C@@H](C)O)[C@@H](C)O)C(C)C)C(C)C)C(=O)N[C@@H](C)C(=O)N[C@@H](CC(N)=O)C(=O)N[C@H](C(N)=O)[C@@H](C)O [Peptide 305]
